Source: patent USRE40198E1, “Method and device for electrochemical immunoassay of multiple analytes” (Roche Diagnostics Operations, Inc., priority 1998, dated 2008)

Legend:
[1] = test system: hemoglobin Alc antibodies (PAB IS, PAB DE, MAB); assay: Reversal of antibody inhibition with BSA-Alc polyhaptan; format: binding
Text: Reversal curves were then generated using a series of dilutions ofBAS-Alc-polyhaptan with a−1:1 Alc:BAS. The BAS-Alc acts as our sample and binds to the antibody.

HbAlc antibodies = assay: Inhibition curves of mediator labels, antibody not given; format: binding
Method: (§1) Polyclonal DE (ion-exchange) purified sheep antibody is used in the TinaQuant HbAlc assay. IS (immunosorbent) antibody is prepared using standard IS purification methodology. Samples of a monoclonal antibody were also obtained for evaluation. Inhibition curves were performed in solution with all mixing occurring in microcentrifuge tubes. Inhibition curves with the three hemoglobin Alc antibodies (PAB IS, PAB DE, and MAB) were generated by fixing OS-DSG-Alc at 5μM and varying the antibody concentration. […] From the inhibition curves we were able to select reasonable concentrations of antibody for maximum reversal with Alc samples.
(§2) Samplers frozen at−20° C. appear to be stable.

[2] = test system: hemoglobin Alc antibody PAB IS (polyclonal, immunosorbent purified); assay: Inhibition of osmium mediator-peptide conjugate current by antibody (enzyme amplified amperometry, palladium electrodes); format: binding, sheep; details: for Inhibition with Antibody, PAB IS: maximum inhibition
Text: 3. Antibodies for the analytes (HbAlc and HbAO) which react specifically with the N-terminal peptides which have been incorporated into the conjugate are provided by standard methods for producing polyclonal antibodies. In this case, sheep were immunized with carrier proteins to which were conjugated the synthetic peptide sequences for HbAlc and HbA0. Following the appropriate immunization schedule, the sheep were bled, and the antibody isolated from the blood via ion exchange chromatography, followed by immunosorbent purification on a column of the same N-terminal peptide with a different linker.
(§3) 4. Appropriate stoichiometry of the reaction was determined for the two reactions independently by methods standard for immunoassay development. A solution containing a fixed amount of labeled conjugate was mixed with a solution with varying amounts of antibody, and, following an appropriate incubation period, the amount of free conjugate remaining was measured on the IDA electrode using the procedure described above.
as §1
(§4) While these feasibility studies for a HbAlc immunoassay used an enzyme mediated amplification method (Glucdor/PQQ/glucose was used to regenerate reduced mediator after oxidation at the electrode surface providing a higher diffusion controlled current is given by the cottrell equation), they are considered to be indicative of results attainable with the use of IDA electrodes with bipotentiostatic control is most preferred for measuring mediator labeled conjugates in accordance with this invention.

[3] = Stability of mediator labels (analytical HPLC, % inhibition values over time); format: physicochemical; details: for Stability in solution: stored as solution
Method: as §2

glucose oxidase = glucose oxidase (Aspergillus niger, UniProt P13006); details: with glucose oxidase; cited from earlier work
Sequence of glucose oxidase (P13006 17-605, species assumed): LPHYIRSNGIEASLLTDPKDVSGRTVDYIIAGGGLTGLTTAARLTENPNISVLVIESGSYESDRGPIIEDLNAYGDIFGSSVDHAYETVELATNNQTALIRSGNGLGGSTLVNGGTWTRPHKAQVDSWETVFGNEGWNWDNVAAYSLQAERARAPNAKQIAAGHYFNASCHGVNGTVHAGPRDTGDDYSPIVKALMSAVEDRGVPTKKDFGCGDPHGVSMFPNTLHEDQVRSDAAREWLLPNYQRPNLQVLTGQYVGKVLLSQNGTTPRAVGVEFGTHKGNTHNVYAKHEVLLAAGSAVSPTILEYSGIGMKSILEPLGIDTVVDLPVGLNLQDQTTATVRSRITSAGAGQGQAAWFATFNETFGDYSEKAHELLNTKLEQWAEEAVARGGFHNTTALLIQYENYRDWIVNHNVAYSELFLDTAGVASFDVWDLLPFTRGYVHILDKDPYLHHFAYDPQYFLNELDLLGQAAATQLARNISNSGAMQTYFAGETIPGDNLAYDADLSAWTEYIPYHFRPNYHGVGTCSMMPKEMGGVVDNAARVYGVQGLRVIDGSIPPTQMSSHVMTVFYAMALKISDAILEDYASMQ

[4] = test system: hemoglobin Alc antibody MAB (monoclonal); assay: Inhibition of osmium mediator-peptide conjugate current by antibody (enzyme amplified amperometry, palladium electrodes); format: binding; details: for Inhibition with Antibody, MAB: maximum inhibition
Method: as §3, §1, §4

[5] = test system: hemoglobin Alc antibody PAB DE (polyclonal, ion-exchange purified); assay: as above; format: binding, sheep; details: for Inhibition with Antibody, PAB DE: maximum inhibition
Method: as §3, §1, §4

HbAo antibody = assay: Reversal of antibody inhibition with AoHB-peptide #1; format: binding
Sheep B<HbAo> antibody = assay: Inhibition of Ao conjugate current by antibody; format: binding
Zymed rabbit antibodies = assay: Inhibition of Ao conjugate current by antibody; format: binding

Compound	Reversal with BSA-Alc polyhaptan [1]	Max inhibition from inhibition curve (HbAlc antibodies) [%]	Inhibition with Antibody, PAB IS [2]	Stability in solution [3]	Inhibition with Antibody, MAB [4]	Inhibition with Antibody, PAB DE [5]	other results
CC(C)CC(NC(=O)C(Cc1cnc[nH]1)NC(=O)C(NCC1(O)OCC(O)C(O)C1O)C(C)C)C(=O)NC(C(=O)NC(CCCCNC(=O)CCCCCN1C(=O)CC(SCC(=O)NCCc2c[n+]([Os]34([Cl])([n+]5ccccc5-c5cccc[n+]53)[n+]3ccccc3-c3cccc[n+]34)c[nH]2)C1=O)C(=O)O)C(C)O (centres unmarked) [Os-SATA-Alc]	Yes with BSA-Alc	44	PAB IS (≦44%)	Stability similar to SMCC.			
Bis(2,2′-bipyridyl) imidazolyl chloroosmium [Os mediator]							Mediation kinetics relative to ferricyanide (glucose oxidase): about 500 times faster
CC(C)CC(NC(=O)C(Cc1cnc[nH]1)NC(=O)C(NCC1(O)OCC(O)C(O)C1O)C(C)C)C(=O)NC(C(=O)NC(CCCCNC(=O)CCCC(=O)NCCc1c[n+]([Os]23([Cl])([n+]4ccccc4-c4cccc[n+]42)[n+]2ccccc2-c2cccc[n+]23)c[nH]1)C(=O)O)C(C)O (centres unmarked) [Os-DSG-Alc]	Yes with BSA-Alc		PAB IS (≦91%)		MAB (<78%)	PAB DE (<87%)	Antibody concentration at which maximum change of inhibition is reached, PAB IS ([2]; conjugate fixed at 5 μM): ~5 µM; Antibody concentration at which maximum change of inhibition is reached, MAB ([4]; conjugate fixed at 5 μM): ~5 µM; Amount of PAB DE antibody needed to get close to maximum inhibition, relative to PAB IS and MAB ([5]; conjugate fixed at 5 μM): more than 3 times; Stability lyophilized and frozen ([3]; lyophilized form and frozen in solution at -20 C (40 and 80 uM)): stable
CC(C)CC(NC(=O)C(Cc1cnc[nH]1)NC(=O)C(N)C(C)C)C(=O)NC(C(=O)NC(CCCCNC(=O)CCCCCN1C(=O)CC(SCC(=O)NCCc2c[n+]([Os]34([Cl])([n+]5ccccc5-c5cccc[n+]53)[n+]3ccccc3-c3cccc[n+]34)c[nH]2)C1=O)C(=O)O)C(C)O (centres unmarked) [Os-SATA-Ao]				unstable in solution. Conjugate			Reversal with AoHB-peptide #1 (HbAo antibody): No with AoHB-; Inhibition with Antibody, Sheep B<HbAo> (Sheep B<HbAo> antibody): ≤ 84%; Inhibition with Antibody, Zymed rabbit antibodies (Zymed rabbit antibodies): No
CC(C)CC(NC(=O)C(Cc1cnc[nH]1)NC(=O)C(NCC1(O)OCC(O)C(O)C1O)C(C)C)C(=O)NC(C(=O)NC(CSC1CC(=O)N(CC2CCC(C(=O)NCCc3c[n+]([Os]45([Cl])([n+]6ccccc6-c6cccc[n+]64)[n+]4ccccc4-c4cccc[n+]45)c[nH]3)CC2)C1=O)C(=O)O)C(C)O (centres unmarked) [Os-SMCC-Alc]	Yes with BSA-Alc	97	PAB IS (≦92%)	Degrades in solution.	MAB (≦50%)	PAB DE (≦97%)	
